From patent US10239861B2, “Therapeutic compounds and uses thereof” (GENENTECH, INC., priority 2015, dated 2019)
pIC50: −log10 of the molar value. Like-named read-outs stand apart in the source and are kept apart here.

Target: PCAF bromodomain (His/Flag epitope tagged PCAF719-832) (Homo sapiens (Human), UniProt Q92831)
Experiment: PCAF AlphaLisa binding assay
Protocol: IC50 Measurements for Inhibitors Using PCAF AlphaLisa Binding Assay
PCAF bromodomain binding and inhibition of the compounds disclosed herein was assessed by monitoring the engagement of biotinylated small molecule ligand (known to bind to the PCAF bromodomain) with the target using the AlphaLisa technology (Perkin-Elmer).

[1] = AlphaLisa, PCAF bromodomain 225 nM, biotinylated small molecule ligand 6 nM, read-out: PCAF IC50

Chain of PCAF bromodomain (His/Flag epitope tagged PCAF719-832) (Q92831 719-832): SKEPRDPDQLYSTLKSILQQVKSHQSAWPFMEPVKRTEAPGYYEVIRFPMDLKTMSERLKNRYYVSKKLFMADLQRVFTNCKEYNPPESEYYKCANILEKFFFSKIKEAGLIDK

SMILES	pIC50 [1]	pIC50
Cn1ncc(NC2CN3CCC2CC3)c(Cl)c1=O (racemic) [Example 10, (racemic)-4-chloro-2-methyl-5-(quinuclidin-3-ylamino)pyridazin-3(2H)-one]		6.01
Cn1ncc(NC2CCCOC2)c(Cl)c1=O (racemic) [Example 11, (racemic)-4-chloro-2-methyl-5-((tetrahydro-2H-pyran-3-yl)amino)pyridazin-3(2H)-one]	5.99	
CN1[C@@H]2CC[C@H]1C[C@@H](Nc1cnn(C)c(=O)c1Cl)C2 [Example 5, 4-chloro-2-methyl-5-(((1R,3r,5S)-8-methyl-8-azabicyclo[3.2.1]octan-3-yl)amino)pyridazin-3(2H)-one]	6.32	
CN1[C@@H]2CC[C@H]1C[C@H](Nc1cnn(C)c(=O)c1Cl)C2 [Example 6, 4-chloro-2-methyl-5-(((1R,3s,5S)-8-methyl-8-azabicyclo[3.2.1]octan-3-yl)amino)pyridazin-3(2H)-one]	6.31	
Cc1c(NC2CCCCN(C)C2)cnn(C)c1=O (stereo not shown) [Example 12, 2,4-dimethyl-5-((1-methylazepan-3-yl)amino)pyridazin-3(2H)-one]	6.78	
CN1CCCCC(Nc2cnn(C)c(=O)c2Br)C1 (stereo not shown) [Example 13, 4-bromo-2-methyl-5-((1-methylazepan-3-yl)amino)pyridazin-3(2H)-one]	7.29	
CC(C)n1ncc(NC2CCCCN(C)C2)c(Cl)c1=O (stereo not shown) [Example 14, 4-chloro-2-isopropyl-5-((1-methylazepan-3-yl)amino)pyridazin-3(2H)-one]	5.96	
CCn1ncc(NC2CCCCN(C)C2)c(Cl)c1=O (stereo not shown) [Example 15, 4-chloro-2-ethyl-5-((1-methylazepan-3-yl)amino)pyridazin-3(2H)-one]	6.39	
CN1CCCCC(Nc2cnn(CC3CC3)c(=O)c2Cl)C1 (stereo not shown) [Example 16, 4-chloro-2-(cyclopropylmethyl)-5((1-methylazepan-3-yl)amino)pyridazin-3(2H)-one]	6.38	
C/C=C/Cn1ncc(NC2CCCCN(C)C2)c(Cl)c1=O (stereo not shown) [Example 17, (E)-2-(but-2-en-1-yl)-4-chloro-5-((1-methylazepan-3-yl)amino)pyridazin-3(2H)-one]	6.51	
COCCN1CCCC(Nc2cnn(C)c(=O)c2Cl)C1 (stereo not shown) [Example 30, 4-chloro-5-((1-(2-methoxyethyl)piperidin-3-yl)amino)-2-methylpyridazin-3(2H)-one]	6.50	
Cn1ncc(NC2CCCN(C3COC3)C2)c(Cl)c1=O (stereo not shown) [Example 31, 4-chloro-2-methyl-5-((1-(oxetan-3-yl)piperidin-3-yl)amino)pyridazin-3(2H)-one]	5.91	
CC(C)N1CCCC(Nc2cnn(C)c(=O)c2Cl)C1 (stereo not shown) [Example 32, 4-chloro-5-((1-isopropylpiperidin-3-yl)amino)-2-methylpyridazin-3(2H)-one]	6.83	
Cn1ncc(NC2CCCN(Cc3c(F)cccc3F)C2)c(Cl)c1=O (stereo not shown) [Example 42, 4-chloro-5-((1-(2,6-difluorobenzyl)piperidin-3-yl)amino)-2-methylpyridazin-3(2H)-one]	6.00	
CN(C)c1ccc(CN2CCCC(Nc3cnn(C)c(=O)c3Cl)C2)cc1 (stereo not shown) [Example 43, 4-chloro-5-[[1-[(4-dimethylaminophenyl)methyl]-3-piperidyl]amino]-2-methyl-pyridazin-3-one]	6.51	
Cn1ncc(NC2CCCN(Cc3cccc(OC(F)F)c3)C2)c(Cl)c1=O (stereo not shown) [Example 44, 4-chloro-5-[[1-[[3-(difluoromethoxy)phenyl]methyl]-3-piperidyl]amino]-2-methyl-pyridazin-3-one]	7.02	
Cn1ncc(NC2CCCN(Cc3ccc(-n4ccnc4)cc3)C2)c(Cl)c1=O (stereo not shown) [Example 45, 4-chloro-5-[[1-[(4-imidazol-1-ylphenyl)methyl]-3-piperidyl]amino]-2-methyl-pyridazin-3-one]	6.41	
Cn1ncc(NC2CCCN(Cc3cc(Cl)cc(Cl)c3)C2)c(Cl)c1=O (stereo not shown) [Example 46, 4-chloro-5-((1-(3,5-dichlorobenzyl)piperidin-3-yl)amino)-2-methylpyridazin-3(2H)-one]	6.56	
Cn1ncc(NC2CCCN(Cc3ncc[nH]3)C2)c(Cl)c1=O (stereo not shown) [Example 48, 4-chloro-5-[[1-(1H-imidazol-2-ylmethyl)-3-piperidyl]amino]-2-methyl-pyridazin-3-one]	6.42	
Cn1ncc(NC2CCCN(Cc3c[nH]cn3)C2)c(Cl)c1=O (stereo not shown) [Example 49, 4-chloro-5-[[1-(1H-imidazol-4-ylmethyl)-3-piperidyl]amino]-2-methyl-pyridazin-3-one]	6.75	
Cn1ncc(NC2CCCN(Cc3cncnc3)C2)c(Cl)c1=O (stereo not shown) [Example 50, 4-chloro-2-methyl-5-[[1-(pyrimidin-5-ylmethyl)-3-piperidyl]amino]pyridazin-3-one]	6.20	
Cn1cc(CN2CCCC(Nc3cnn(C)c(=O)c3Cl)C2)cn1 (stereo not shown) [Example 51, 4-chloro-2-methyl-5-[[1-[(1-methylpyrazol-4-yl)methyl]-3-piperidyl]amino]pyridazin-3-one]	6.43	
Cn1ccnc1CN1CCCC(Nc2cnn(C)c(=O)c2Cl)C1 (stereo not shown) [Example 52, 4-chloro-2-methyl-5-((1-((1-methyl-1H-imidazol-2-yl)methyl)piperidin-3-yl)amino)pyridazin-3(2H)-one]	5.85	
Cc1cncc(CN2CCCC(Nc3cnn(C)c(=O)c3Cl)C2)c1 (stereo not shown) [Example 53, 4-chloro-2-methyl-5-[[1-[(5-methyl-3-pyridyl)methyl]-3-piperidyl]amino]pyridazin-3-one]	6.36	
Cc1nc(CN2CCCC(Nc3cnn(C)c(=O)c3Cl)C2)[nH]c1C (stereo not shown) [Example 54, 4-chloro-5-[[1-[(4,5-dimethyl-1H-imidazol-2-yl)methyl]-3-piperidyl]amino]-2-methyl-pyridazin-3-one]	5.84	

The next lines start with results.

pIC50 [1]	SMILES	pIC50
7.21	CN1CCCCC(Nc2cnn(C)c(=O)c2Cl)C1 (racemic) [Example 1, 4-chloro-2-methyl-5-((1-methylazepan-3-yl)amino)pyridazin-3(2H)-one]	
6.73	CN1CCCC(Nc2cnn(C)c(=O)c2Cl)CC1 (racemic) [Example 4, (racemic)-4-chloro-2-methyl-5-((1-methylazepan-4-yl)amino)pyridazin-3(2H)-one]	
6.78	CN1CC(Nc2cnn(C)c(=O)c2Cl)CC(c2ccccc2)C1 (racemic) [Example 24, 4-chloro-2-methyl-5-((1-methyl-5-phenylpiperidin-3-yl)amino)pyridazin-3(2H)-one]	
7.46	C[C@@H]1CC[C@@H](Nc2cnn(C)c(=O)c2Cl)CN1C (stereo in doubt) [Example 26, 4-chloro-5-((1,6-dimethylpiperidin-3-yl)amino)-2-methylpyridazin-3(2H)-one]	
6.84	C[C@@H]1CC[C@H](Nc2cnn(C)c(=O)c2Cl)CN1C (stereo in doubt) [Example 27, 4-chloro-5-((1,6-dimethylpiperidin-3-yl)amino)-2-methylpyridazin-3(2H)-one]	
6.76	C[C@@H]1CC[C@@H](Nc2cnn(C)c(=O)c2Cl)CN1C (stereo in doubt) [Example 28, 4-chloro-5-((1,6-dimethylpiperidin-3-yl)amino)-2-methylpyridazin-3(2H)-one]	
7.31	C[C@H]1CC[C@@H](Nc2cnn(C)c(=O)c2Cl)CN1C (stereo in doubt) [Example 29, 4-chloro-5-((1,6-dimethylpiperidin-3-yl)amino)-2-methylpyridazin-3(2H)-one]	
5.91	CN1CCC(Nc2cnn(C)c(=O)c2Cl)CC1 [Example 2, 4-chloro-2-methyl-5-((1-methylpiperidin-4-yl)amino)pyridazin-3(2H)-one]	
6.39	Cn1ncc(NC2CCCN(c3ccccn3)C2)c(Cl)c1=O (stereo not shown) [Example 9, 4-chloro-2-methyl-5-((1-(pyridin-2-yl)piperidin-3-yl)amino)pyridazin-3(2H)-one]	
7.22	CC1CCC(Nc2cnn(C)c(=O)c2Cl)CN1C (stereo not shown) [Example 25, 4-chloro-5-((1,6-dimethylpiperidin-3-yl)amino)-2-methylpyridazin-3(2H)-one]	
5.70	Cn1ncc(NC2CCCN(Cc3ccccn3)C2)c(Cl)c1=O (stereo not shown) [Example 33, 4-chloro-2-methyl-5-((1-(pyridin-2-ylmethyl)piperidin-3-yl)amino)pyridazin-3(2H)-one]	
6.17	C[C@H](c1ccccc1)N1CCCC(Nc2cnn(C)c(=O)c2Cl)C1 (stereo partly drawn) [Example 35, 4-chloro-2-methyl-5-((1-((R)-1-phenylethyl)piperidin-3-yl)amino)pyridazin-3(2H)-one]	
6.20	C[C@@H](c1ccccc1)N1CCCC(Nc2cnn(C)c(=O)c2Cl)C1 (stereo partly drawn) [Example 36, 4-chloro-2-methyl-5-((1-((S)-1-phenylethyl)piperidin-3-yl)amino)pyridazin-3(2H)-one]	
6.01	Cn1ncc(N[C@@H]2CCCCN(Cc3ccccc3)C2)c(Cl)c1=O [Example 37, (R)-5-((1-benzylazepan-3-yl)amino)-4-chloro-2-methylpyridazin-3(2H)-one]	
5.42	Cn1ncc(N[C@H]2CCCCN(Cc3ccccc3)C2)c(Cl)c1=O [Example 38, (S)-5-((1-benzylazepan-3-yl)amino)-4-chloro-2-methylpyridazin-3(2H)-one]	
6.99	CN1Cc2ccccc2C[C@@H](Nc2cnn(C)c(=O)c2Cl)C1 [Example 39, (R)-4-chloro-2-methyl-5-((2-methyl-2,3,4,5-tetrahydro-1H-benzo[c]azepin-4-yl)amino)pyridazin-3(2H)-one]	
6.81	CN1CCCCCC(Nc2cnn(C)c(=O)c2Cl)C1 (stereo not shown) [Example 40, 4-chloro-2-methyl-5-((1-methylazocan-3-yl)amino)pyridazin-3(2H)-one]	
6.04	Cn1ncc(NC2CCCN(Cc3ccccc3N3CCOCC3)C2)c(Cl)c1=O (stereo not shown) [Example 47, 4-chloro-2-methyl-5-[[1-[(2-morpholinophenyl)methyl]-3-piperidyl]amino]pyridazin-3-one]	
